Test results taken from US6914045B2, “Glycopeptide antibiotics” (Wyeth Holdings Corporation, priority 2001, dated 2005).
≈ marks a conversion by molar mass, not a printed value.

What was measured:
[1] = system: Staphylococcus aureus-SMITH (GC 4543); experiment: acute lethal infection in mice; format: in vivo; details: acute lethal infection, female CD-1 mice, intraperitoneal challenge, intravenous 30 min. after infection, 7 day survival
Procedure, shortened: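 Protocol: bacteria suspended in trypticase soy broth or hog gastric mucin injected ip into female CD-1 mice at a level killing untreated controls in 24-48 hr; compound given iv in saline or 5% dextrose 30 min post-challenge; five mice per dose; ED50 derived from pooled 7 day survival of three runs.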

Escherichia coli = experiment: in vitro antibacterial evaluation, MIC by broth dilution; format: cell-based; details: 18 hours at 35° C.
Enterococcus sp. = experiment: as above; format: cell-based; details: broth dilution, 18 hours at 35° C.
Procedure, shortened: (§1)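 MIC, the lowest antibiotic concentration preventing growth, was read across 64-0.06 μg/mL with 5×10^5 CFU/mL inoculum. Method followed NCCLS M7-A2 broth dilution using Mueller-Hinton II; Gram-positive strains covered recent methicillin-, penicillin- and/or vancomycin-resistant clinical isolates.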

Streptococcus sp. = experiment: as above; format: cell-based; details: broth dilution, 18 hours at 35° C.
Procedure, shortened: as §1

Staphylococcus sp. = experiment: as above; format: cell-based; details: broth dilution, 18 hours at 35° C.
Procedure, shortened: as §1

[2] = anatomic pathology (histopathology of heart and kidney) in mice; format: in vivo; details: CD-1 mice, 20 mg/kg intravenously daily for 9 days, necropsy day 10, microscopic histopathology
Method: Samples of tissues from necropsied mice were formalin-fixed, paraffin-embedded, sectioned, stained with hematoxylin and eosin, and examined microscopically. Histopathologic findings were recorded. These findings were subjectively graded on a scale corresponding to slight, mild, moderate, marked and severe as compared to untreated controls.

CC(C1CCCCC1)C1NC(=O)CNC(=O)C(CO)NC(=O)C(C(O)C2CNC(=N)N2C2OC(CO)C(O)C(O)C2O)NC(=O)C(C(O)C2CNC(=N)N2)NC(=O)C(Cc2ccc(OC3OC(CO)C(OC4OC5COC6(OC5C(O)C4O)C4CC5CC(C4)CC6C5)C(O)C3O)cc2)NC1=O (stereo not drawn) [Example 221, Cyclo[3-cyclohexyl-2-aminobutanoyl-O-[4-O-[4,6-O-(2-adamantylidene)hexopyranosyl]hexopyranosyl]tyrosyl-3-(2-iminoimidazolidin-4-yl)seryl-3-(3-hexopyranosyl-2-iminoimidazolidin-4-yl)serylserylglycyl]]
median effective dose (ED50), Staphylococcus aureus-SMITH (GC 4543) [1]: 0.03 mg/kg
MIC Escherichia coli (ATCC 25922) (Escherichia coli): 64 µg/mL (≈ 44.6 µM)
MIC Escherichia coli (GC 4559) (Escherichia coli): 32 µg/mL (≈ 22.3 µM)
MIC Escherichia coli (GC 4560) (Escherichia coli): 2 µg/mL (≈ 1.4 µM)
MIC Enterococcus avium (GC 4558) (Enterococcus sp.): 2 µg/mL (≈ 1.4 µM)
MIC Enterococcus faecalis (ATCC 29212) (Enterococcus sp.): 2 µg/mL (≈ 1.4 µM)
MIC Enterococcus faecalis (GC 2242) (Enterococcus sp.): 2 µg/mL (≈ 1.4 µM)
MIC Enterococcus faecalis (GC 2691) (Enterococcus sp.): 2 µg/mL (≈ 1.4 µM)
MIC Enterococcus faecalis (GC 3059) (Enterococcus sp.): 1 µg/mL (≈ 0.698 µM)
MIC Enterococcus faecalis (GC 4552) (Enterococcus sp.): 2 µg/mL (≈ 1.4 µM)
MIC Enterococcus faecalis (GC 4553) (Enterococcus sp.): 2 µg/mL (≈ 1.4 µM)
MIC Enterococcus faecalis (GC 4554) (Enterococcus sp.): 2 µg/mL (≈ 1.4 µM)
MIC Enterococcus faecalis (GC 6189) (Enterococcus sp.): 1 µg/mL (≈ 0.698 µM)
MIC Enterococcus faecium (GC 2243) (Enterococcus sp.): 2 µg/mL (≈ 1.4 µM)
MIC Enterococcus faecium (GC 4556) (Enterococcus sp.): 2 µg/mL (≈ 1.4 µM)
MIC Enterococcus faecium (GC 4557) (Enterococcus sp.): 1 µg/mL (≈ 0.698 µM)
MIC Enterococcus faecalis (ATCC 29212) (Enterococcus sp.; inoculum 5×10^5 CFU/mL, strain ATCC 29212): 2 µg/mL (≈ 1.4 µM)
MIC Enterococcus faecalis (GC 2242) (Enterococcus sp.; inoculum 5×10^5 CFU/mL, strain GC 2242): 2 µg/mL (≈ 1.4 µM)
MIC Enterococcus faecium (GC 2243) (Enterococcus sp.; inoculum 5×10^5 CFU/mL, strain GC 2243): 2 µg/mL (≈ 1.4 µM)
MIC Enterococcus faecalis (GC 2691) (Enterococcus sp.; inoculum 5×10^5 CFU/mL, strain GC 2691): 2 µg/mL (≈ 1.4 µM)
MIC Enterococcus faecalis (GC 3059) (Enterococcus sp.; inoculum 5×10^5 CFU/mL, strain GC 3059): 1 µg/mL (≈ 0.698 µM)
MIC Enterococcus faecalis (GC 4552) (Enterococcus sp.; inoculum 5×10^5 CFU/mL, strain GC 4552): 2 µg/mL (≈ 1.4 µM)
MIC Enterococcus faecalis (GC 4553) (Enterococcus sp.; inoculum 5×10^5 CFU/mL, strain GC 4553): 2 µg/mL (≈ 1.4 µM)
MIC Enterococcus faecalis (GC 4554) (Enterococcus sp.; inoculum 5×10^5 CFU/mL, strain GC 4554): 2 µg/mL (≈ 1.4 µM)
MIC Enterococcus faecium (GC 4556) (Enterococcus sp.; inoculum 5×10^5 CFU/mL, strain GC 4556): 2 µg/mL (≈ 1.4 µM)
MIC Enterococcus faecium (GC 4557) (Enterococcus sp.; inoculum 5×10^5 CFU/mL, strain GC 4557): 1 µg/mL (≈ 0.698 µM)
MIC Enterococcus avium (GC 4558) (Enterococcus sp.; inoculum 5×10^5 CFU/mL, strain GC 4558): 2 µg/mL (≈ 1.4 µM)
MIC Enterococcus faecalis (GC 6189) (Enterococcus sp.; inoculum 5×10^5 CFU/mL, strain GC 6189): 1 µg/mL (≈ 0.698 µM)
MIC Streptococcus agalactiae (GC 4564) (Streptococcus sp.): <0.12 µg/mL
MIC Streptococcus pneumoniae (ATCC 6301) (Streptococcus sp.): <0.12 µg/mL
MIC Streptococcus pneumoniae (GC 1894) (Streptococcus sp.): <0.12 µg/mL
MIC Streptococcus pneumoniae (GC 4565) (Streptococcus sp.): <0.12 µg/mL
MIC Streptococcus pyogenes (GC 4563) (Streptococcus sp.): <0.12 µg/mL
MIC Streptococcus pneumoniae (ATCC 6301) (Streptococcus sp.; inoculum 5×10^5 CFU/mL, strain ATCC 6301): <0.12 µg/mL
MIC Streptococcus pneumoniae (GC 1894) (Streptococcus sp.; inoculum 5×10^5 CFU/mL, strain GC 1894): <0.12 µg/mL
MIC Streptococcus pyogenes (GC 4563) (Streptococcus sp.; inoculum 5×10^5 CFU/mL, strain GC 4563): <0.12 µg/mL
MIC Streptococcus agalactiae (GC 4564) (Streptococcus sp.; inoculum 5×10^5 CFU/mL, strain GC 4564): <0.12 µg/mL
MIC Streptococcus pneumoniae (GC 4565) (Streptococcus sp.; inoculum 5×10^5 CFU/mL, strain GC 4565): <0.12 µg/mL
MIC Staphylococcus aureus (ATCC 29213) (Staphylococcus sp.; strain ATCC 29213): 1 µg/mL (≈ 0.698 µM)
MIC Staphylococcus aureus (GC 1131) (Staphylococcus sp.; strain GC 1131): 2 µg/mL (≈ 1.4 µM)
MIC Staphylococcus aureus (GC 3051) (Staphylococcus sp.; strain GC 3051): 2 µg/mL (≈ 1.4 µM)
MIC Staphylococcus aureus (GC 3053) (Staphylococcus sp.; strain GC 3053): 1 µg/mL (≈ 0.698 µM)
MIC Staphylococcus aureus (GC 4541) (Staphylococcus sp.; strain GC 4541): 2 µg/mL (≈ 1.4 µM)
MIC Staphylococcus aureus (GC 4542) (Staphylococcus sp.; strain GC 4542): 2 µg/mL (≈ 1.4 µM)
MIC Staphylococcus aureus-SMITH (GC 4543) (Staphylococcus sp.; strain GC 4543): 2 µg/mL (≈ 1.4 µM)
MIC Staphylococcus aureus (GC 4544) (Staphylococcus sp.; strain GC 4544): 2 µg/mL (≈ 1.4 µM)
MIC Staphylococcus aureus (GC 4545) (Staphylococcus sp.; strain GC 4545): 2 µg/mL (≈ 1.4 µM)
MIC Staphylococcus haemolyticus (GC 4546) (Staphylococcus sp.; strain GC 4546): 2 µg/mL (≈ 1.4 µM)
MIC Coagulase Negative Staphylococcus (GC 4547) (Staphylococcus sp.; strain GC 4547): 2 µg/mL (≈ 1.4 µM)
MIC Coagulase Negative Staphylococcus (GC 4548) (Staphylococcus sp.; strain GC 4548): 1 µg/mL (≈ 0.698 µM)
MIC Coagulase Negative Staphylococcus (GC 4549) (Staphylococcus sp.; strain GC 4549): 1 µg/mL (≈ 0.698 µM)
MIC Coagulase Negative Staphylococcus (GC 4551) (Staphylococcus sp.; strain GC 4551): 2 µg/mL (≈ 1.4 µM)
Anatomical Pathology (Day 10), Heart [2]: 0
Anatomical Pathology (Day 10), Kidney [2]: 0
